Assays:
[1] = system: murine leukemia P388; test: MTT assay (Test C), murine leukemia P388; type: cell-based; settings: Mus musculus, 96 h, 4 days, read-out: cytotoxic activity IC50
Procedure: (§1) Test C. Evaluation of G-Quadruplex Stabilizers Using the MTT Assay.
(§2) Cell lines are selected based upon one or more factors including data on their relative telomerase activity, varied organ sites, available comparative data, and their ability to form solid tumors in athymic nude mice. The advantage of an MTT assay is that the cytotoxic/cytostatic activities can be readily determined. Cells are cultured for 4 days at 37° C. followed by addition of MTT (3-[4,5-dimethylthiozol-2-yl]-2,5-diphenyltetrazolium bromide (Sigma) (0.1 mg/ml). Cells are treated with MTT for 3 hrs and then dissolved in 100 μl 100% DMSO. Absorbance is measured at OD570 using a microplate reader (Model 3550 UV from BIO-RAD). The MTT value is normalized to OD570 of cells treated with Cellfectin alone. Stock solutions of each compound are prepared. MTT assays are performed using spectrometric analysis and 96 well plates. Compound 258, a representative compound of formula I, was evaluated against a variety of cell lines using the MTT assay compound.

[2] = system: human lymphoblastoma RPMI 8402; test: MTT assay (Test C), human lymphoblastoma RPMI 8402; type: cell-based; settings: 96 h, RPMI 8402, MTT, 4 days, read-out: cytotoxic activity IC50
Procedure: as §1, §2

[3] = system: human nasopharyngeal carcinoma KB3-1; test: MTT assay (Test C), human nasopharyngeal carcinoma KB3-1; type: cell-based; settings: KB 3-1, 96 h, KB3-1, MTT, 4 days, read-out: cytotoxic activity IC50
Procedure: as §1, §2

[4] = molecular target: telomerase; settings: read-out: telomerase inhibitory activity IC50; cited from earlier work
[5] = system: SK-N-AS; settings: read-out: cytotoxicity IC50; cited from earlier work
[6] = system: LAN5; settings: read-out: cytotoxicity IC50; cited from earlier work
[7] = system: WAC2; settings: read-out: cytotoxicity IC50; cited from earlier work
[8] = system: LAN1; settings: read-out: cytotoxicity IC50; cited from earlier work
[9] = system: MiaPaCa; settings: read-out: cytotoxicity IC50; cited from earlier work
[10] = system: K62 leukemia cells; settings: cited from earlier work
[11] = system: natural bone marrow CD34-positive cells; settings: cited from earlier work
[12] = system: human breast cancer cell lines HBC-4, BSY-1, HBC-5, MCF-7, and MDA-MB-231; settings: range over HBC-4, BSY-1, HBC-5, MCF-7, MDA-MB-231; cited from earlier work

Compound: CC(C)[C@@H]1NC(=O)c2coc(n2)-c2coc(n2)-c2coc(n2)C/C=C/c2coc(n2)-c2coc(n2)-c2coc1n2 [Compound 258, Macrocyclic Hexaoxazole]
- IC50 [1]: 45 nM
- IC50 [2]: 25 nM
- IC50 [3]: 25 nM
- melting point: 195 to 197 °C (dec.)

Compound: Cc1oc2nc1-c1nc(co1)-c1nc(co1)-c1nc(co1)-c1nc(co1)-c1nc(co1)C1=NC(CS1)c1nc-2c(C)o1 (stereo not shown) [Telomestatin]
- IC50 [4]: 5 nM
- IC50 [5]: 800 nM
- IC50 [6]: 2500 nM
- IC50 [7]: 3200 nM
- IC50 [8]: 4000 nM
- IC50 [9]: 500 nM
- effect on plating efficiency [10]: does suppress the plating efficiency
- effect on BFU-E and CFU-GM [11]: much lesser effect

Compound: CC[C@H](C)[C@@H]1NC(=O)c2nc(oc2-c2ccccc2)-c2csc(n2)-c2coc(n2)-c2coc(n2)-c2coc(n2)CNC(=O)[C@@H](C(C)C)NC1=O [YM-216391]
- GI50 [12]: 15 to 33 nM

— patent US8729060B2, “Macrocyclic polyoxazole compounds and use thereof” (Rutgers, the State University of New Jersey, priority 2007, dated 2014)
